Target: T1, nitrobenzene nitroreductase (Ectopseudomonas oleovorans, UniProt Q6DLR9)
T1 construct: The fractions containing nitrobenzene nitroreductase activity, which eluted in the linear gradient between 65 to 80 ml, were pooled; made in house; host or cells: Pseudomonas pseudoalcaligenes JS45, the native organism (not recombinant); Crude extract fractionated on Q-Sepharose Fast Flow
Assay: Nitrobenzene nitroreductase activity on nitroarene substrates (NADPH oxidation)
Format: biochemical, Pseudomonas pseudoalcaligenes strain JS45
Conditions: partially purified enzyme; compound as substrate
Description: The crude extract was loaded on a 100 ml Q-Sepharose Fast Flow column (Pharmacia, XK-26) previously equilibrated with 150 mM KCl in 20 mM phosphate buffer. Proteins were eluted with a step gradient that began with 100 ml buffer containing KCl (150 mM) and then a linear gradient of 150 to 300 mM KCl at a flow rate of 2.5 ml/min.
A high performance liquid chromatograph (HPLC) equipped with a diode array detector monitoring A210 (Hewlett-Packard, Model 1040M, Wilmington Del.) was used to identify and quantitate the nitroarenes, intermediates and corresponding aminophenols. […] For the whole cell transformation experiments, the nitroarenes and products were separated on an ABZ column (Supelco, Bellefonte, Pa.) using acetonitrile/water as solvent system. Capillary gas chromatography/mass spectral (GC/MS) analyses were performed splitless on a Hewlett-Packard GC (model 5890) equipped with a mass selective detector (model 5971) and a DB-5 column (J & W Scientific, Folsom, Calif., 30 m long×0.25 mm I.D.×1.0 μm film thickness). The aminophenol derivatized with BSTFA was analyzed by GC/MS using the temperature program beginning at 100° C. and increased 10° C./min to 280° C. The n-butylboronic acid derivative was analyzed using an initial temperature of 50° C. increasing 20° C./min to 340°C.

T1 sequence (Q6DLR9 2-227): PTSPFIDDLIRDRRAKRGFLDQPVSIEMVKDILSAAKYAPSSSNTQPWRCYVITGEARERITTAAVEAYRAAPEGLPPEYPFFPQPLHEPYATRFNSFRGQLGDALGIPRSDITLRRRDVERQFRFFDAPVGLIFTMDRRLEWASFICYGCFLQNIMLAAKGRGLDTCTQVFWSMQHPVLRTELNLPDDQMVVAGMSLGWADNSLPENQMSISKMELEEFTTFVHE

| SMILES | rate of transformation by partially purified nitrobenzene nitroreductase |
| --- | --- |
| O=[N+]([O-])c1ccc(Oc2ccccc2)cc1 [4-nitrobiphenyl ether] | 8.1 μmol/min/mg protein |
| O=[N+]([O-])c1ccccc1 [nitrobenzene] | 7.9 μmol/min/mg protein |

From patent US6797497B1, “Biological process for the production of ortho-aminophenols from nitroaromatic compounds using mutase” (The United States of America as represented by the …, priority 2001, dated 2004)
